US8916575B2, “Quinazoline derivatives for the treatment of viral infections and further diseases” (Janssen R&D Ireland, priority 2011, dated 2014)

Tests used:
[1] = test system: human TLR7 mutant (dIRR2); assay: TLR7 mutant (deletion in second leucine-rich repeat) NFκB-luc cellular reporter assay; format: cell-based; set-up: unit not given here; settings: HEK293 NFκB-luc reporter, mutant TLR7, 6 hours incubation
Protocol: (§1) The ability of compounds to activate human TLR7 and/or TLR8 was assessed in a cellular reporter assay using HEK293 cells transiently transfected with a TLR7 or TLR8 expression vector and NFκB-luc reporter construct. In one instance the TLR expression construct expresses the respective wild type sequence or a mutant sequence comprising a deletion in the second leucine-rich repeat of the TLR.
(§2) Briefly, HEK293 cells were grown in culture medium (DMEM supplemented with 10% FCS and 2 mM Glutamine). For transfection of cells in 10 cm dishes, cells were detached with Trypsin-EDTA, transfected with a mix of CMV-TLR7 or TLR8 plasmid (750 ng), NFκB-luc plasmid (375 ng) and a transfection reagent and incubated 24 hours at 37° C. in a humidified 5% CO2 atmosphere. Transfected cells were then detached with Trypsin-EDTA, washed in PBS and resuspended in medium to a density of 1.67×10^5 cells/mL. Thirty microliters of cells were then dispensed into each well in 384-well plates, where 10 μL of compound in 4% DMSO was already present. Following 6 hours incubation at 37° C., 5% CO2, the luciferase activity was determined by adding 15 μl of Steady Lite Plus substrate (Perkin Elmer) to each well and readout performed on a ViewLux ultraHTS microplate imager (Perkin Elmer). Dose response curves were generated from measurements performed in quadruplicates. Lowest effective concentrations (LEC) values, defined as the concentration that induces an effect which is at least two fold above the standard deviation of the assay, were determined for each compound.

human TLR8 = target: T1, human TLR8 (Homo sapiens, UniProt Q9NR97); assay: TLR8 wild type NFκB-luc cellular reporter assay; format: cell-based; set-up: unit not given here; settings: HEK293 NFκB-luc reporter, 6 hours incubation
T1 construct: expressed in transfected cells; host or cells: HEK293
T1 sequence (Q9NR97 27-1041): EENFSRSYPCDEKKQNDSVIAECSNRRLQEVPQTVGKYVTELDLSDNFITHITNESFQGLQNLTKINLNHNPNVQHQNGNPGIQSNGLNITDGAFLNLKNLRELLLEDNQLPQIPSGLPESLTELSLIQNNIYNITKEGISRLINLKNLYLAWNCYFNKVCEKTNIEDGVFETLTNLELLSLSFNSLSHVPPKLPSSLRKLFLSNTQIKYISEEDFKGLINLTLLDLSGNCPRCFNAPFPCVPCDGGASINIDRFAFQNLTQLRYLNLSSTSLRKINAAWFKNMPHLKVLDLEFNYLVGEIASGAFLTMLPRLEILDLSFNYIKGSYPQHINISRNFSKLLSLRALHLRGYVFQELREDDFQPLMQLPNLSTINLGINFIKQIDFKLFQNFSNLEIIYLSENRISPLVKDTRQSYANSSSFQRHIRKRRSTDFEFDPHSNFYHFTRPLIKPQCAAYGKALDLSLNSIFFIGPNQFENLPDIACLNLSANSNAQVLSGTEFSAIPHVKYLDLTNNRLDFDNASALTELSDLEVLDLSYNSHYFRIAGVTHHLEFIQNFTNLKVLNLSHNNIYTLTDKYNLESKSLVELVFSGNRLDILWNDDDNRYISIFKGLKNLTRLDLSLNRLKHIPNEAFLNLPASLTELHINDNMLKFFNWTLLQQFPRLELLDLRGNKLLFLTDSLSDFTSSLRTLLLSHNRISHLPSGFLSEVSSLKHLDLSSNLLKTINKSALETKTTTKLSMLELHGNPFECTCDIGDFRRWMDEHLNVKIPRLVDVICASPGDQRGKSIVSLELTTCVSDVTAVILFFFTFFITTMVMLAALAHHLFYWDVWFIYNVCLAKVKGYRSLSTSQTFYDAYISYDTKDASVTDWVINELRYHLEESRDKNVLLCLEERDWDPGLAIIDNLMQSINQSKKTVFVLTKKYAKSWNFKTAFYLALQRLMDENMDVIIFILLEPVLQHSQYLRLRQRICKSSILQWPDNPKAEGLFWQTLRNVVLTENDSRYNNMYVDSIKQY
Protocol: as §1, §2

[2] = test system: HCV replicon (Huh-7 luc/neo cells); assay: Suppression of HCV replicon replication by conditioned media from PBMC; format: cell-based, HCV type 1b; settings: Hepatitis C virus, compound concentration applied to PBMCs giving 50% reduction of replicon luciferase activity, read-out: PBMC-HUH7_EC50
Protocol: Activation of human TLR7 results in robust production of interferon by plasmacytoid dendritic cells present in human blood. The potential of compounds to induce interferon was evaluated by looking at the antiviral activity in the HCV replicon system upon incubation with conditioned media from peripheral blood mononuclear cells (PBMC). The HCV replicon assay is based on a bicistronic expression construct, as described by Lohmann et al. (Science (1999) 285: 110-113; Journal of Virology (2003) 77: 3007-15 3019) with modifications described by Krieger et al. (Journal of Virology (2001) 75: 4614-4624). The assay utilized the stably transfected cell line Huh-7 luc/neo harboring an RNA encoding a bicistronic expression construct comprising the wild type NS3-NS5B regions of HCV type 1b translated from an Internal Ribosome Entry Site (IRES) from encephalomyocarditis virus (EMCV), preceded by a reporter gene (Firefly-luciferase) and a selectable marker gene (neoR, neomycine phosphotransferase). The construct is flanked by 5′ and 3′ NTRs (non-translated regions) from HCV type 1b. Continued culture of the replicon cells in the presence of G418 (neoR) is dependent on the replication of the HCV RNA. The stably transfected replicon cells that replicate HCV RNA autonomously and to high levels, encoding inter alia luciferase, were used for profiling of the conditioned cell culture media.
Briefly, PBMCs were prepared from buffy coats of at least two donors using a standard Ficoll centrifugation protocol. Isolated PBMCs were resuspended in RPMI medium supplemented with 10% human AB serum and 2×10^5 cells/well were dispensed into 384-well plates containing compounds (70 μL total volume). After overnight incubation, 10 μL of supernatant was transferred to 384-well plates containing 2.2×10^3 replicon cells/well in 30 μL (plated the day before). Following 24 hours of incubation, replication was measured by assaying luciferase activity using 40 μL/well Steady Lite Plus substrate (Perkin Elmer) and measured with ViewLux ultraHTS microplate imager (Perkin Elmer). The inhibitory activity of each compound on the Huh7-luc/neo cells were reported as EC50 values, defined as the compound concentration applied to the PBMCs resulting in a 50% reduction of luciferase activity which in turn indicates the degree of replication of the replicon RNA on transfer of a defined amount of PBMC culture medium. Recombinant interferon α-2a (Roferon-A) was used as a standard control compound.

[3] = test system: human TLR8 mutant (dIRR2); assay: TLR8 mutant (deletion in second leucine-rich repeat) NFκB-luc cellular reporter assay; format: cell-based; set-up: unit not given here; settings: HEK293 NFκB-luc reporter, mutant TLR8, 6 hours incubation
Protocol: as §1, §2

CC[C@H](C)[C@@H](CO)Nc1nc(N)nc2cc(OC)c(OC)cc12 [Compound 7]
TLR7-dIRR2_LEC [1]: 3.8
TLR8-wt_LEC (human TLR8): 13.8
EC50 [2]: 12.4 µM
TLR8-dIRR2_LEC [3]: 9.0
